# Measurements: US9725430B2, “Use of small molecule inhibitors targeting EYA tyrosine phosphatase” (Children's Hospital Medical Center, priority 2013, dated 2017)
# pIC50: −log10 of the molar value.
# Columns and labels:
# [1] = system: developing zebrafish vasculature; assay: Zebrafish model of angiogenesis; assay type: in vivo; settings: exposure from 5.25 hpf, analysis at 24 hpf; compound 1 at 0.25 μM
# Experimental: Embryos (FLK1-GFP trangenic) were maintained in fish water until the 50% epiboly stage (5.25 hpf) and were transferred into wells of 24-well plate containing the inhibitors in fish water. The analysis for vascular defects was performed after the 24 hpf stage, and embryos were imaged using a fluorescence microscope.
# Transgenic fish expressing EGFP in endothelial cells (Tg(flk1:EGFP)) were used to facilitate visualization of the developing vasculature. In control experiments embryos were treated with 0.1% DMSO (vehicle). At the time of analyses (24 hpf) developing vessels normally migrated from the lateral plate mesoderm to the midline and formed the vascular cord, subsequently forming the dorsal aorta and the posterior cardinal vein and followed by the formation of intersegmental vessels at designated branch points (FIG. 6b).
# retinal vasculature [2] = assay: Mouse model of oxygen-induced retinopathy; assay type: in vivo, mice; settings: 100 or 50 pmoles injected at P12, analyzed at P16
# Description: The mouse model of oxygen-induced retinopathy mimics the retinopathy characteristic of proliferative retiopathy conditions such as retinopathy of prematurity and diabetic retinopathy. […] The resulting retinal hypoxia after day 12, when pups were brought back to 20% O2, induced excessive hypoxia-driven angiogenesis. A characteristic large avascular area at the center of the retina and excessive regrowth of superficial vessels (pre-retinal neovascular tufts) in the mid-peripheral region was observed. […] In contrast, inhibition of either Vegf or Vegfr2 in OIR experiments suppresses both neovascular tuft formation and revascularization.
# mouse aortic rings = assay: Aortic ring sprouting assay; assay type: cell-based; settings: 5 μM, 10 days
# Experimental: Additionally, the effect of compounds 1d, 1f, 1h, 1i, 1g, 2 and 2a on cell proliferation, migration, tube formation, micro-vessel branching, and perivascular recruitment using an aortic ring sprouting assay. When slices of mouse aorta are cultured in collagen gels there is typically a lag phase for the first 4 days followed by linear sprouting of endothelial cells. By day 6, branching is observed. All the test compounds were initially assayed at 7.5 μM and the number of branch-points counted. When there was a severe effect (no visible sprouting), or when there was no apparent effect, other doses were tested to establish a dose-dependence. All of the compounds assayed were able to attenuate aortic ring sprouting. There was a strong reduction in initial sprouting and some attenuation of branching. With the exception of 2a, in all cases where there was sprouting, the length of sprouts was shorter than in the controls.
# Endothelial cell migration can also be studied […] using the aortic ring assay in which sprouting angiogenesis is monitored by the formation of vascular sprouts outside the wall of mouse aortic rings incubated in collagen matrix and stimulated by VEGF (Gerhardt, H., et al. EXS, 3-15 (2005), hereby incorporated by reference in its entirety). Briefly, mice were obtained from the Cincinnati Children's veterinary service and handled according to the institutional animal care and use protocol. […] Mice were 4 to 6 weeks old female C57BL16, and aortic ring explants were cultured at 37° C. in a humidified incubator under a 5% CO2 atmosphere.
# Each inhibitor was serially diluted (between 0.25 mM and 7.5 mM) to stocks of 1000× the working concentrations in sterile 100% DMSO in order to achieve an equal final concentration of DMSO (0.1% v/v) in all culture conditions. For the experiments, the compounds were diluted in EBM containing 2.5% FBS, penicillin/streptomycin and 20 ng/ml VEGF165 (R&D Systems, Minneapolis, Minn.). Each compound was applied from the first day of culture over a 10-day period with medium change every two days. In all experiments, the vehicle (DMSO, 0.1%) was used as control. The sprouting density was derived from counting the number of branches per ring, and the extent of angiogenic sprouting was estimated by measuring the total surface area covered by the vessels as illustrated in FIG. 7.
# EYA3-SIX2 interaction = EYA3-SIX2 interaction (Homo sapiens (Human), UniProt Q99504); assay: His-SIX2 pull-down of EYA3 on Ni-NTA; assay type: binding; settings: 50 μM compound, 15 minutes
# Description: Each point represents the mean and standard deviation of two independent readings. (C) Plots of Vmax and Km as a function of inhibitor concentration. […] The mixture was loaded on a Ni-NTA column. Beads were washed with 3 column volumes of load buffer (last washes, lanes 2 and 6). Proteins retained on the beads are shown in lanes 3 and 7. Lanes 4 and 8 are molecular weight markers.
# One function of the catalytic domain of the EYAs is to mediate its interaction with the SIX proteins. This complex then translocates to the nucleus where the SIX-EYA complex can activate transcription.
# retinal vasculature [3] = assay: Post-natal retinal angiogenesis in mice; assay type: in vivo
# Experimental: Next, retinal blood vessel density and angiogenic extension were studied using induced deletion of Eya3 in mice by PDGFB-icreERT2 starting at the day of birth. Isolectin labeled retinal blood vessels at postnatal day 5 in control Eya3fl/fl (FIGS. 8b and 8d) and experimental Eya3fl/fl; PDGFB-icreERT2 (FIGS. […]) mice. FIGS. 8d and 8e are magnified images of the regions indicated in 8b and 8c, respectively.
# Next, treatment with an inhibitor of Eya3 was performed to test the effect on post-natal retinal angiogenesis. Briefly, 100 μM of compound 1a was injected into the eyes of post-natal mice, at P0.5 and P3. P5 retinas were then analyzed for effects on the retinal vasculature.
# Eya3(ED) = Eya3(ED) (Mus musculus (Mouse), UniProt P97480); assay: p-nitrophenylphosphate (pNPP) assay, catalytic domain of Eya3; assay type: biochemical; settings: pNPP substrate
# Description: The catalytic domain of mouse Eya3 (“ED”, comprising residues 223-510 of Eya3) was purified as described by Rayapureddi, J. P. et al. (FEBS Lett 580, 3853-3859 (2006), incorporated by reference in its entirety). For full-length Eya3 (“hEYA3”), human Eya3 isoform 2 (representing the major species identified in human cell lines by mass spectrometry, expressed as residues 127-573 of NM_001990, isoform 1) was sub-cloned into pDEST565 to express a poly-histidine-Glutathione-S-transferase (His-GST) tagged fusion protein with a TVMV protease site. The protein was purified by glutathione-S-transferase affinity chromatography followed by TVMV cleavage, Ni-NTA chromatography, and finally size exclusion chromatography.
# An inhibitory assay was conducted using the previously described p-nitrophenylphosphate assay (Rayapureddi, J. P. et al. Nature 426, 295-298 (2003)). Briefly, ED was incubated in a reaction mixture containing 20 mM MES pH 6, 2 mM MgCl2, 125 μM inhibitor, 3.4 mM para-nitrophenol phosphate (pNPP) and 0.01 μg/μL enzyme.
# The compounds were then tested using full-length human recombinant, purified EYA3 and pNPP as a substrate. Compounds were dissolved in DMSO and diluted as needed. […] Reactions were incubated at 30° C. for 30 minutes and quenched with 100 mM EDTA pH 10. IC50 values were then calculated directly from regression curves using PRISM software. […]
# Sequence of EYA3-SIX2 interaction (Q99504 whole entry, looked up): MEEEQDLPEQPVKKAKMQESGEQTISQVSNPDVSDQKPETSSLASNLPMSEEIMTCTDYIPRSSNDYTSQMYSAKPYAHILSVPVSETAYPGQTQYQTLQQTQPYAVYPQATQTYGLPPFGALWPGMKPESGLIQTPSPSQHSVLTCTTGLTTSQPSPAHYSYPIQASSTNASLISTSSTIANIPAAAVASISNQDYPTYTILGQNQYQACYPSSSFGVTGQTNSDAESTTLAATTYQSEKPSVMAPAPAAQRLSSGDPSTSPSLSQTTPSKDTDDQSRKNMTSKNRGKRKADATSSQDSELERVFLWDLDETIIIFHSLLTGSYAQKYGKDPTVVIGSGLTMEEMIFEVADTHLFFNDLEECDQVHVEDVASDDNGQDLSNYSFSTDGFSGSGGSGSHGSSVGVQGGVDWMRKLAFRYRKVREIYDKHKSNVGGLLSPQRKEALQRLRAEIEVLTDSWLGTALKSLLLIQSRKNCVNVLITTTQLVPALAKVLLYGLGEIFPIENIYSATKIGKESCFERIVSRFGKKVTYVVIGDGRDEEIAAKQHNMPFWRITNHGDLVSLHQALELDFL
# Sequence of EYA3-SIX2 interaction (Q9NPC8 whole entry partner, looked up): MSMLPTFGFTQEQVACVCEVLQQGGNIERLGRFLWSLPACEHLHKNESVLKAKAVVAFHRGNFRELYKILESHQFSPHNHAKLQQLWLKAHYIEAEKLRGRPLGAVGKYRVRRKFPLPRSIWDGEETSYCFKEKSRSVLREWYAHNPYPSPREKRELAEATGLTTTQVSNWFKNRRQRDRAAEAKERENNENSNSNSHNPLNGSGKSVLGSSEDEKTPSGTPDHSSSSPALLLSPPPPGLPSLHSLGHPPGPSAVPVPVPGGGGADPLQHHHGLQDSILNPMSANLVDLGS
# Sequence of Eya3(ED) (P97480 223-510): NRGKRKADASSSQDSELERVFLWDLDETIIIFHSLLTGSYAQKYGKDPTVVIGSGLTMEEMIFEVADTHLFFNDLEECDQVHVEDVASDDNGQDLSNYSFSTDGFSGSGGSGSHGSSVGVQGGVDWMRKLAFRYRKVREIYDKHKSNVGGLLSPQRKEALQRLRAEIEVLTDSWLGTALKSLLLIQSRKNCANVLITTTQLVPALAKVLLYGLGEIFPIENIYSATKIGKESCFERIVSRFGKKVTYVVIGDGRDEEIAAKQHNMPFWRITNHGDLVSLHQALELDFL
SMILES,intersegmental vessels in zebrafish embryos [1],formation of neovascular tufts (retinal vasculature [2]),sprout length and microvascular density of aortic rings (mouse aortic rings),EYA3-SIX2 interaction in presence of inhibitor (EYA3-SIX2 interaction),"retinal vasculature branch points (retinal vasculature [3]; 100 μM injected into eyes at P0.5 and P3, P5 retinas)",retinal angiogenesis in VEC-specific Eya3 knockout model (retinal vasculature [3]; normal oxygen conditions),pIC50 (Eya3(ED))
"CCc1oc2ccccc2c1C(=O)c1cc(Br)c(O)c(Br)c1 [Compound 1, Benzbromarone, reference compound]",significant reduction of intersegmental vessels,Significant reduction in the formation of neovascular tufts,shorter sprouts and significantly lower microvascular density,unaffected,–,–,–
CCc1oc2ccccc2c1C(=O)c1ccc(O)cc1 [Compound 1a],"reduced the number of intersegmental vessels, but were less potent",Significant reduction in the formation of neovascular tufts,shorter sprouts and significantly lower microvascular density,–,quantifiable decrease in branch points,additional significant reduction in retinal angiogenesis,4.72
